Key:
[1] = target: Sodium-dependent dopamine transporter (Homo sapiens, UniProt Q01959); experiment: Inhibition of [3H]dopamine reuptake at human DAT expressed in HEK293 cells by SPA; assay type: cell-based
[2] = target: Sodium-dependent serotonin transporter (Homo sapiens, UniProt P31645); experiment: Inhibition of [3H]citalopram uptake at human 5HTT expressed in HEK293 cells by SPA; assay type: cell-based
[3] = target: Sodium-dependent noradrenaline transporter (Homo sapiens, UniProt P23975); experiment: Inhibition of [3H]nisoxetine reuptake at human NET expressed in HEK293 cells by SPA; assay type: cell-based
[4] = target: T1, 5-hydroxytryptamine receptor 2A (Homo sapiens, UniProt P28223); experiment: Inhibition of 5HT2A receptor at 10 uM
[5] = target: T2, Muscarinic acetylcholine receptor M3 (Homo sapiens, UniProt P20309); experiment: Inhibition of muscarinic M3 receptor
Target sequence in this assay (P20309 whole entry): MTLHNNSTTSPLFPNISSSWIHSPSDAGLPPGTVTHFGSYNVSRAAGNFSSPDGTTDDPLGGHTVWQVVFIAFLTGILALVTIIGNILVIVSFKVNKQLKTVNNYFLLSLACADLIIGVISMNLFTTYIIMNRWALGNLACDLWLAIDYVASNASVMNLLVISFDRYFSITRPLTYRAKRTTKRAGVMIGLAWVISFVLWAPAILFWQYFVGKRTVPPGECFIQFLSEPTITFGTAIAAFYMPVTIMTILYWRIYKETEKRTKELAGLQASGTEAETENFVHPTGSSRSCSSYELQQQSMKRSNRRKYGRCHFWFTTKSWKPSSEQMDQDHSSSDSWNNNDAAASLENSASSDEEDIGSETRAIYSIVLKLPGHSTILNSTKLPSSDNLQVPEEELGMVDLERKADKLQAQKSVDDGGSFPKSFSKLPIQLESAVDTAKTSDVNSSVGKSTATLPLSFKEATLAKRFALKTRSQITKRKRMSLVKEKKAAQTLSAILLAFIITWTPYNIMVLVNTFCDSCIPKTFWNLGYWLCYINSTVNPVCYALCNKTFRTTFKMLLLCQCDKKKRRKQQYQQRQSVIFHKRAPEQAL

Cytochrome P450 2C9 = Cytochrome P450 2C9 (Homo sapiens, UniProt P11712); experiment: Inhibition of CYP2C9; assay type: ADME
Hepatocyte = experiment: Metabolic stability in human hepatocytes assessed as intrinsic clearance; assay type: ADME, cell-based, Liver
Cytochrome P450 3A4 = Cytochrome P450 3A4 (Homo sapiens, UniProt P08684); experiment: Inhibition of CYP3A4; assay type: ADME
[6] = target: T2, Muscarinic acetylcholine receptor M3; experiment: Inhibition of muscarinic M3 receptor at 10 uM
Target sequence in this assay (P20309 whole entry, looked up): as the sequence (P20309 whole entry) above

[7] = Apparent permeability from apical to basolateral side of the MDCK cells expressing MDR1 gene; assay type: ADME, cell-based, Canis lupus familiaris; conditions: dog
[8] = target: T1, 5-hydroxytryptamine receptor 2A; experiment: Activity at 5HT2A receptor
[9] = target: T3, 5-hydroxytryptamine receptor 2B (Homo sapiens, UniProt P41595); experiment: Activity at 5HT2B receptor
[10] = Apparent permeability from apical to basolateral side of the human Caco-2 membrane; assay type: ADME, cell-based
[11] = Apparent permeability from basolateral to apical side of the human Caco-2 membrane; assay type: ADME, cell-based
[12] = Inhibition of [3H]NA uptake at rat NET expressed in HEK293 cells; assay type: cell-based
Cytochrome P450 2D6 = Cytochrome P450 2D6 (Homo sapiens, UniProt P10635); experiment: Inhibition of CYP2D6; assay type: ADME
[13] = target: 5-hydroxytryptamine receptor 2C (Homo sapiens) (UniProt P28335); experiment: Inhibition of 5HT2C receptor at 10 uM
[14] = Inhibition of sodium channel site 2
[15] = target: T3, 5-hydroxytryptamine receptor 2B; experiment: Inhibition of 5HT2B receptor at 10 uM
[16] = Distribution coefficient, log D at pH 7.4; assay type: physicochemical; conditions: octanol/water
[17] = Dissociation constant, pKa of the compound; assay type: physicochemical
[18] = target: 5-hydroxytryptamine receptor 2C (Homo sapiens, UniProt P28335); experiment: Activity at 5HT2C receptor
Cytochrome P450 1A2 = target: T4, Cytochrome P450 1A2 (Homo sapiens, UniProt P05177); experiment: Inhibition of CYP1A2; assay type: ADME
T4 sequence (P05177 whole entry): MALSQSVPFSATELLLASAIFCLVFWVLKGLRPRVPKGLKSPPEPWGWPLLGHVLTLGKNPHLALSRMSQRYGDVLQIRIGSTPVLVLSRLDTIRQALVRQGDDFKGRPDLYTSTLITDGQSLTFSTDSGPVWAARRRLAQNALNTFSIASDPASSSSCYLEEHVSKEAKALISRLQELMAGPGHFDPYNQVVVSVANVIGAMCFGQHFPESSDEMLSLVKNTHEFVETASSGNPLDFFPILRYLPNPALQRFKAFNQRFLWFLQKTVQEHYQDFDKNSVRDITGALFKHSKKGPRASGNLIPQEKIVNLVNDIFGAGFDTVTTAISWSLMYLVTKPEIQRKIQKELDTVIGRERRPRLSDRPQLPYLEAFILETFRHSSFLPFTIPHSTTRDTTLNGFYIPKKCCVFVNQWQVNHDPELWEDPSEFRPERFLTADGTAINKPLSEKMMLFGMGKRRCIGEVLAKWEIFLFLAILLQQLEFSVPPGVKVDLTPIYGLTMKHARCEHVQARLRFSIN

[19] = Inhibition of L type calcium channel
[20] = Metabolic stability in human liver microsomes assessed as intrinsic clearance; assay type: ADME, Microsome
Rattus norvegicus = experiment: Increase in noradrenaline level in interstitial fluid of sc dosed conscious rat prefrontal cortex relative to baseline; assay type: functional
[21] = Apparent permeability from basolateral to apical side of the MDCK cells expressing MDR1 gene; assay type: ADME, cell-based, Canis lupus familiaris; conditions: dog
[22] = Ratio of permeability from basolateral to apical side over apical to basolateral side of MDCK cells expressing MDR1 gene; conditions: dog

Sequence of Sodium-dependent serotonin transporter (P31645 whole entry): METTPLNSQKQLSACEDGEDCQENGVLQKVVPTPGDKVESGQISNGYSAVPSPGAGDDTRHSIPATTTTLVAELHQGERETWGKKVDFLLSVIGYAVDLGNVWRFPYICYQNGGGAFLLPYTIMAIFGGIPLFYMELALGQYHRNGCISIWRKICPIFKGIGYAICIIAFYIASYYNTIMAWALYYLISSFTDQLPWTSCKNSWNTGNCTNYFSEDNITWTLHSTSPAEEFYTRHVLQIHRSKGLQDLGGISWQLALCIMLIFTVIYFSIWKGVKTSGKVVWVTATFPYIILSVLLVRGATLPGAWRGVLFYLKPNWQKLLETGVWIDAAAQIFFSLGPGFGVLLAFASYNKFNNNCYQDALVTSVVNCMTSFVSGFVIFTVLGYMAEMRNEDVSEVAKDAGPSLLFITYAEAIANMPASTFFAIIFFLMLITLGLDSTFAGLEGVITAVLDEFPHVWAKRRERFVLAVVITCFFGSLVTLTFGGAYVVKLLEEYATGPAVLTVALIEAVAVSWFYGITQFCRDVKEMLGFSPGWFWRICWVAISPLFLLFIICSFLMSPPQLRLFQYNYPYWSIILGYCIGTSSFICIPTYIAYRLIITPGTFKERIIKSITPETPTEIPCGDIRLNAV
Sequence of Cytochrome P450 2D6 (P10635 whole entry): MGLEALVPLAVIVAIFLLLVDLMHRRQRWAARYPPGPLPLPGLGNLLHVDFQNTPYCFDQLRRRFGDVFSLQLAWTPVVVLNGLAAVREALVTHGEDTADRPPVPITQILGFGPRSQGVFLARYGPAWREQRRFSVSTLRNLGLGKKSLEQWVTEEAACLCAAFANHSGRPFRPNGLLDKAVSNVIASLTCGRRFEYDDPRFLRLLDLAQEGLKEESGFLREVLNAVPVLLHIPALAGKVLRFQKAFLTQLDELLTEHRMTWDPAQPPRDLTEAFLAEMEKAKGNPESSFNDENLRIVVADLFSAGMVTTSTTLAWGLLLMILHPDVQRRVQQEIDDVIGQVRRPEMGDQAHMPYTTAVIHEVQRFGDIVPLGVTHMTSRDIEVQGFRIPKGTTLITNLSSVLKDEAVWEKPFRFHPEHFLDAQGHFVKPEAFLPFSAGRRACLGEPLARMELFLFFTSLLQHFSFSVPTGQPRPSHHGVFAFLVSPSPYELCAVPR
Sequence of Sodium-dependent dopamine transporter (Q01959 whole entry): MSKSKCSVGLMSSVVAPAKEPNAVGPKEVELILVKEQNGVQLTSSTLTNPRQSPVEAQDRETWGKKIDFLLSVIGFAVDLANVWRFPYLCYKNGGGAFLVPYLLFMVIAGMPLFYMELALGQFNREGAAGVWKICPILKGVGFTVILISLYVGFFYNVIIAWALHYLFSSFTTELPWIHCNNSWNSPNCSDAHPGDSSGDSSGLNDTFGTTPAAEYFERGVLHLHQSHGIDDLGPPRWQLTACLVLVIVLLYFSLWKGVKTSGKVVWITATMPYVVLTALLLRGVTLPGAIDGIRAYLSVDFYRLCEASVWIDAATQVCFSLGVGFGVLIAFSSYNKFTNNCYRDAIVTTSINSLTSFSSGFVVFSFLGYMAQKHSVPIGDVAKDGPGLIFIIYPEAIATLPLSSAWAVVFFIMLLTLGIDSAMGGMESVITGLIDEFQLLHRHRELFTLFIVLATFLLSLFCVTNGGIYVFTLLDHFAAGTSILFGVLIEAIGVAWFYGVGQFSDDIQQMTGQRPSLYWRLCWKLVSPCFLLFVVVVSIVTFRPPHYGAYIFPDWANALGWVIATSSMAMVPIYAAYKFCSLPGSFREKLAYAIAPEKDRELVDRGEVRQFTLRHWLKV
Sequence of Sodium-dependent noradrenaline transporter (P23975 whole entry): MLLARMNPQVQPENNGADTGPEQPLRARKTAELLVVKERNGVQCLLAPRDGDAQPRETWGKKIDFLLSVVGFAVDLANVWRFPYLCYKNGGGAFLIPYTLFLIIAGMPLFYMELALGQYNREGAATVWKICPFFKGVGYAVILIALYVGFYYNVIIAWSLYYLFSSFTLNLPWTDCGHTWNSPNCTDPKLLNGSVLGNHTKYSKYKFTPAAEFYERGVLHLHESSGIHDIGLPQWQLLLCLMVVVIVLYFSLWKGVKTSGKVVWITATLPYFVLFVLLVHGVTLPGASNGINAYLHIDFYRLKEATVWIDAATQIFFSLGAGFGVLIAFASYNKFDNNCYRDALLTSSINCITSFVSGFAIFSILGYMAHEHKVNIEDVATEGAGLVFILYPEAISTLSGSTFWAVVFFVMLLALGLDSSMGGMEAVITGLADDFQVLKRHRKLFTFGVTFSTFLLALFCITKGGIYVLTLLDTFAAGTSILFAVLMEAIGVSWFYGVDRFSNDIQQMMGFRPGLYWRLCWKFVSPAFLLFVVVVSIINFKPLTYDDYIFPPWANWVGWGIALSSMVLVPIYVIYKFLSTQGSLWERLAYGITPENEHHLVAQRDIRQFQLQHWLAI
T3 sequence (P41595 whole entry): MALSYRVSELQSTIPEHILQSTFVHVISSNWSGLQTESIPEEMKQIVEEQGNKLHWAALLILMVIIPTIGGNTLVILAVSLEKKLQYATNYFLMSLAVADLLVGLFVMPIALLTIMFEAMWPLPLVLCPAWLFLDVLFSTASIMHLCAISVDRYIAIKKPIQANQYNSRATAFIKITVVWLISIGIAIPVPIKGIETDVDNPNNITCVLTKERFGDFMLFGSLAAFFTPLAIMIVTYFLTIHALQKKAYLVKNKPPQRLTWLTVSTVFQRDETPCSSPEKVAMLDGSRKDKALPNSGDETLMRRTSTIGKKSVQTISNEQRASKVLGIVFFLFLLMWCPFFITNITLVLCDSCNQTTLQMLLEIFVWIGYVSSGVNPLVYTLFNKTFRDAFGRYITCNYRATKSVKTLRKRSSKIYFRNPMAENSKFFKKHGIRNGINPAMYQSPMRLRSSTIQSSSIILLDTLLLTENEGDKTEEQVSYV
T1 sequence (P28223 whole entry): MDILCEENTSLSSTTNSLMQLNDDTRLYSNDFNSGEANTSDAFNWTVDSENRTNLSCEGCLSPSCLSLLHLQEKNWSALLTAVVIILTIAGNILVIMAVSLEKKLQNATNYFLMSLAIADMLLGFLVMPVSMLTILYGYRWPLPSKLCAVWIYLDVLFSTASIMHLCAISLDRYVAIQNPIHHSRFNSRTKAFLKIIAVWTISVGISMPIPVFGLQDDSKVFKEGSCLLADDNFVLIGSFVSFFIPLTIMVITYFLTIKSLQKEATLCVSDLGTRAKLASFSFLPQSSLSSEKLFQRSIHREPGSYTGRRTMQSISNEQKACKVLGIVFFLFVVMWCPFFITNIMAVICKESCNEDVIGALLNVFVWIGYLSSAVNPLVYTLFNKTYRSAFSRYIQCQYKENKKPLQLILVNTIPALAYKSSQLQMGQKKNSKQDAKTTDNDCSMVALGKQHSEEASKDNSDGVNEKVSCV
Sequence of Cytochrome P450 2C9 (P11712 whole entry): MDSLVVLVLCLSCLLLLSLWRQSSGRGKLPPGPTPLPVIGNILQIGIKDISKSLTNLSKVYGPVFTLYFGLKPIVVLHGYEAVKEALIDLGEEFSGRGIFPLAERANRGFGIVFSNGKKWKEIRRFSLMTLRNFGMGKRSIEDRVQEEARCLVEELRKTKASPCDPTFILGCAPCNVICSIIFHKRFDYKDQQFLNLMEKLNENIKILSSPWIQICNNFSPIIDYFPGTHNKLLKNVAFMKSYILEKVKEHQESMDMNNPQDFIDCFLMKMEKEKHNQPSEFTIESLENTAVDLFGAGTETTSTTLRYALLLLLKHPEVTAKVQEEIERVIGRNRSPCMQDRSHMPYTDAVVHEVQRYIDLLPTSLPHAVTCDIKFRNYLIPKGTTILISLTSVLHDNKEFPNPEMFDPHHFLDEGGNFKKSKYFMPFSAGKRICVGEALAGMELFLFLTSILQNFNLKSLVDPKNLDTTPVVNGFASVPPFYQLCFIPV
Sequence of 5-hydroxytryptamine receptor 2C (P28335 whole entry): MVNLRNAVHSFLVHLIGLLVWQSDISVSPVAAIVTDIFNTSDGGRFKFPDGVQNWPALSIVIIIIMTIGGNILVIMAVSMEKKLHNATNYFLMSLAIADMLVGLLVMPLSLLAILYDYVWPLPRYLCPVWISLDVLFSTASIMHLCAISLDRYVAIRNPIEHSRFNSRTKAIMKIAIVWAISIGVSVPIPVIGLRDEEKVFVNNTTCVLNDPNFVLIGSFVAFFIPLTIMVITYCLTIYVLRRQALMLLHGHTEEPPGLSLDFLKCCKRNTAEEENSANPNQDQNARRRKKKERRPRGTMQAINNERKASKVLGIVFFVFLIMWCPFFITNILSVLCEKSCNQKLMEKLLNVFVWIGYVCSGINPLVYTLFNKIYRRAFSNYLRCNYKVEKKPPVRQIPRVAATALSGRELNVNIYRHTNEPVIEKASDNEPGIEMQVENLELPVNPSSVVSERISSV
Sequence of 5-hydroxytryptamine receptor 2C (Homo sapiens) (P28335 whole entry): as above

c1ccc(-c2ccccc2CN[C@H]2CCNC2)cc1
Ki [1]: 2470 nM | Ki [2]: 1070 nM | Ki [3]: 271 nM

CN(C)C(=O)N(Cc1ccccc1-c1ccccc1)[C@H]1CCNC1
Ki [1]: 2970 nM | Ki [2]: 5010 nM | Ki [3]: 53 nM

CCOC(=O)N(Cc1ccccc1-c1ccccc1)[C@H]1CCNC1
inhibition [4]: > 80% | Ki [5]: 635 nM | IC50 (Cytochrome P450 2C9): > 3000 nM | Ki [1]: 3030 nM | CL (Hepatocyte): < 5 µL/min/mg | IC50 (Cytochrome P450 3A4): > 3000 nM | inhibition [6]: > 80% | Papp A→B [7]: 22 ×10⁻⁶ cm/s | EC50 [8]: > 10000 nM | EC50 [9]: > 10000 nM | Ki [2]: 1110 nM | Papp A→B [10]: 27 ×10⁻⁶ cm/s | Papp B→A [11]: 28 ×10⁻⁶ cm/s | Ki [12]: 2.5 nM | IC50 (Cytochrome P450 2D6): 1210 nM | inhibition [13]: > 80% | Ki [14]: 1100 nM | inhibition [15]: > 80% | logD [16]: 1.1 | pKa [17]: 9.6 | EC50 [18]: > 10000 nM | IC50 (Cytochrome P450 1A2): > 3000 nM | Ki [19]: 1500 nM | microsomal CLint [20]: < 7 µL/min/mg | Activity (Rattus norvegicus): 400% | Papp B→A [21]: 44 ×10⁻⁶ cm/s | Ki [3]: 8 nM

CCCS(=O)(=O)N(Cc1ccccc1-c1ccccc1)[C@H]1CCNC1
Ki [1]: 2070 nM | Ki [2]: 5680 nM | IC50 (Cytochrome P450 2D6): 185 nM | microsomal CLint [20]: 12 µL/min/mg | Ki [3]: 7 nM

O=S(=O)(N(Cc1ccccc1-c1ccccc1)[C@H]1CCNC1)C(F)(F)F
Ki [1]: 2080 nM | Ki [2]: 5280 nM | Ki [3]: 30 nM

CCC(=O)N(Cc1ccccc1-c1ccccc1)[C@H]1CCNC1
Ki [2]: 2680 nM | microsomal CLint [20]: < 7 µL/min/mg | Ki [3]: 30 nM

CC(C)C(=O)N(Cc1ccccc1Oc1ccccc1)[C@H]1CCNC1
Ki [1]: 3500 nM | Ki [2]: 229 nM | microsomal CLint [20]: 10 µL/min/mg | Ki [3]: 34 nM

O=CN(Cc1ccccc1-c1ccccc1)[C@H]1CCNC1
Ki [1]: 2130 nM | Ki [2]: 869 nM | Ki [3]: 118 nM

CS(=O)(=O)N(Cc1ccccc1C(F)(F)F)[C@H]1CCNC1
Ki [1]: 2890 nM | Ki [2]: 2890 nM | Ki [3]: 86 nM

CC(=O)N(Cc1ccccc1-c1ccccc1)[C@H]1CCNC1
Ki [2]: 5810 nM | microsomal CLint [20]: < 7 µL/min/mg | Ki [3]: 124 nM

CSc1ccccc1CN(C(=O)C(C)C)[C@H]1CCNC1
Ki [1]: 1380 nM | Ki [2]: 50 nM | Ki [3]: 65 nM

CCOC(=O)N(Cc1ccccc1C(C)C)[C@H]1CCNC1
Ki [1]: 3340 nM | Ki [2]: 764 nM | Ki [3]: 49 nM

COC(=O)N(Cc1ccccc1-c1ccccc1)[C@H]1CCNC1
Ki [1]: 3190 nM | Ki [2]: 4440 nM | IC50 (Cytochrome P450 2D6): 10600 nM | microsomal CLint [20]: < 7 µL/min/mg | Ki [3]: 18 nM

CC(C)CC(=O)N(Cc1ccccc1-c1ccccc1)[C@H]1CCNC1
Ki [2]: 415 nM | microsomal CLint [20]: 9 µL/min/mg | Ki [3]: 30 nM

CC(C)OC(=O)N(Cc1ccccc1-c1ccccc1)[C@H]1CCNC1
Ki [1]: 2010 nM | Ki [2]: 787 nM | Ki [3]: 14 nM

O=C(N1CCCC1)N(Cc1ccccc1-c1ccccc1)[C@H]1CCNC1
Ki [1]: 4190 nM | Papp A→B [7]: 2 ×10⁻⁶ cm/s | efflux ratio [22]: 26 | Papp B→A [21]: 53 ×10⁻⁶ cm/s | Ki [3]: 27 nM

CCOC(=O)N(Cc1ccccc1-c1ccccc1)[C@@H]1CCNC1
Ki [1]: 2910 nM | Ki [2]: 410 nM | IC50 (Cytochrome P450 2D6): 350 nM | microsomal CLint [20]: < 7 µL/min/mg | Ki [3]: 16 nM

CCCC(=O)N(Cc1ccccc1-c1ccccc1)[C@H]1CCNC1
Ki [1]: 2610 nM | Ki [2]: 730 nM | microsomal CLint [20]: < 7 µL/min/mg | Ki [3]: 25 nM

Source: ChEMBL document CHEMBL1155858, “Derivatives of (3S)-N-(biphenyl-2-ylmethyl)pyrrolidin-3-amine as selective noradrenaline reuptake inhibitors: Reducing P-gp mediated efflux by modulation of H-bond acceptor capacity” (Bioorg Med Chem Lett, 2008)
